4 molecules from paper PMC7583591 (Computational Biology and Chemistry, 2020) can be followed below.

Bounds are passed on as bounds.

The assay addresses SARS-CoV-2 M^pro (Severe acute respiratory syndrome coronavirus 2, UniProt P0DTD1). The assay can be described thus: biochemical. As to conditions: for inhibition at 50 µM: read-out: % Protease inhibition at 50 μM ligand concentration.

One may read the IC50 as the midpoint of a concentration-inhibition curve. The low end stands for inhibition by little substance, the high end for a need for much substance. In the case of `Cc1cc(O)c2c(=O)c3c(O)cc(O)c4c5c(O)cc(O)c6c(=O)c7c(O)cc(C)c8c1c2c(c34)c(c78)c65` [Hypericin], it took 63.6 ± 5.7 µM to reach half-maximal inhibition (IC50) and the inhibition at 50 µM was 42.8 ± 8.2%. Taken in the same sequence, the figures for `C[S@@+]([O-])CCCCN=C=S` [L-sulforaphane] were more than 128 µM and 8.4 ± 2.7%. For `Oc1ccc(/C=C/c2cc(O)cc(O)c2)cc1` [Resveratrol] the same measures were more than 128 µM and 1.8 ± 0.9%. On to `O=C(Nc1ccccc1-c1cn2c(CN3CCNCC3)csc2n1)c1cnc2ccccc2n1` [SRT1720], for which, for the setting “50 μM”, the “% Protease inhibition at 50 μM ligand concentration” value came to 9.3 ± 2.2%.
